Reference: PubChem BioAssay (NCI)
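Cultured in 96-well plates, cells were exposed to test compound for 48 hours across five concentrations. Here, GI50 denotes the concentration required for 50% inhibition of growth. TGI is the concentration that stops growth completely.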

Assays:
Experiment in all cases: NCI-60 cell line screen, 48 h
HCT-15 colon = tested on: HCT-15 colon
SK-MEL-28 melanoma = tested on: SK-MEL-28 melanoma
DU-145 prostate = tested on: DU-145 prostate
K-562 leukemia = tested on: K-562 leukemia
HOP-62 NSCLC = tested on: HOP-62 NSCLC
IGROV1 ovarian = tested on: IGROV1 ovarian
UO-31 renal = tested on: UO-31 renal
KM12 colon = tested on: KM12 colon
NCI-H460 lung = tested on: NCI-H460 lung
UACC-62 melanoma = tested on: UACC-62 melanoma

Structure (SMILES)	GI50 (HCT-15 colon)	TGI (HCT-15 colon)	GI50 (SK-MEL-28 melanoma)	TGI (SK-MEL-28 melanoma)	GI50 (DU-145 prostate)	TGI (DU-145 prostate)	GI50 (K-562 leukemia)	TGI (K-562 leukemia)	GI50 (HOP-62 NSCLC)	TGI (HOP-62 NSCLC)	GI50 (IGROV1 ovarian)	TGI (IGROV1 ovarian)	GI50 (UO-31 renal)	TGI (UO-31 renal)	GI50 (KM12 colon)	TGI (KM12 colon)	GI50 (NCI-H460 lung)	TGI (NCI-H460 lung)	GI50 (UACC-62 melanoma)	TGI (UACC-62 melanoma)
CC(C)(C)OC(=O)N1Cc2cc3ccccc3nc2C1CO (configuration not stated)	> 100 µM	> 100 µM	> 100 µM	> 100 µM	> 100 µM	> 100 µM	> 100 µM	> 100 µM	> 100 µM	> 100 µM	> 100 µM	> 100 µM	> 100 µM	> 100 µM	> 100 µM	> 100 µM	> 100 µM	> 100 µM	> 100 µM	> 100 µM
C[C@@H](Oc1cc(-c2cnn(C3CCNCC3)c2)cnc1N)c1c(Cl)cc(F)cc1Cl	2.7 µM	12.5 µM	1.56 µM	3.17 µM	3.25 µM	13.6 µM	0.229 µM	3.88 µM	2 µM	9.52 µM	3.31 µM	16.7 µM	3.16 µM	13.2 µM	0.0496 µM	2.93 µM	0.902 µM	5.4 µM	1.61 µM	3.65 µM
Cc1ccc(C2C3Cc4ccccc4C3=NN2c2ccc(S(=O)(=O)NC(=O)Nc3ccccc3)cc2)cc1 (configuration not stated)	14.8 µM	32.2 µM	22.6 µM	52.5 µM	14.2 µM	27.2 µM	11.5 µM	26.8 µM	19.3 µM	63 µM	1.15 µM	19.7 µM	11.6 µM	28.4 µM	17.3 µM	43.2 µM	19.3 µM	70.1 µM	11.2 µM	23.2 µM
COc1ccc(-c2nnc(Nc3nc(O)c(C4=c5cc(Br)ccc5=NC4=O)s3)o2)cc1	18.4 µM	> 63 µM	29 µM	> 100 µM	16.9 µM	> 56.3 µM	20.6 µM	75.2 µM	24 µM	> 71.1 µM	2.68 µM	23.8 µM	19.4 µM	63.1 µM	3.54 µM	23.5 µM	22.6 µM	> 100 µM	1.08 µM	26.7 µM
CC(=O)c1ccc(Oc2c3ccccc3nc3occc23)cc1	2.39 µM	72.4 µM	41.2 µM	> 100 µM	15.6 µM	> 100 µM	2.93 µM	> 100 µM	> 100 µM	> 100 µM	55.7 µM	> 100 µM	60.5 µM	> 100 µM	9.12 µM	> 100 µM	23.3 µM	> 100 µM	2.11 µM	7.95 µM
O=C(CC1Sc2ccccc2NC1=O)NNc1ccc(F)cc1 (configuration not stated)	6.76 µM	> 100 µM	> 100 µM	> 100 µM	57 µM	> 100 µM	4.67 µM	> 100 µM	66.3 µM	> 100 µM	40.5 µM	> 100 µM	7.47 µM	> 100 µM	25.2 µM	> 100 µM	30.8 µM	> 100 µM	6.94 µM	> 100 µM
c1ccc(/C(=N\Nc2nc3ccccc3s2)c2ccccn2)cc1	–	> 100 µM	–	> 100 µM	–	30 µM	–	> 44.1 µM	–	97.8 µM	–	> 48.2 µM	–	16.3 µM	–	> 100 µM	–	12.8 µM	–	27.5 µM
CC(=O)O[C@H]1CC[C@]2(C)C3C(=O)C[C@]4(C)[C@@H](C(C)CCC(=O)O)CC[C@@]4(C)[C@@H]3CC[C@H]2C1(C)C (some centres not stated)	11.7 µM	46.9 µM	28.6 µM	> 50 µM	19.7 µM	> 50 µM	14.9 µM	> 50 µM	27.2 µM	> 50 µM	34.7 µM	> 50 µM	40.7 µM	> 50 µM	13.9 µM	38.4 µM	14.3 µM	> 50 µM	21.7 µM	> 50 µM
CCOC(=O)c1cc2c(n1Cc1ccccc1OC)-c1oncc1CCC2	2.24 µM	> 100 µM	> 100 µM	> 100 µM	5.27 µM	> 100 µM	1.59 µM	> 100 µM	1.89 µM	9.9 µM	1.99 µM	> 100 µM	6.53 µM	> 100 µM	2.1 µM	> 100 µM	3.89 µM	> 100 µM	3.37 µM	> 100 µM
CCOC(=O)CCSC1=CC(=O)c2nc3ccccc3c3ccnc1c23	24.8 µM	92.9 µM	20.2 µM	41.1 µM	16 µM	33.2 µM	26.9 µM	> 100 µM	16.4 µM	47.7 µM	22.7 µM	> 100 µM	16.3 µM	34.9 µM	15 µM	34.1 µM	13.4 µM	50.1 µM	15.8 µM	31.4 µM
Nc1ncnc2c1ncn2CCCCC(=O)O	–	> 100 µM	–	> 100 µM	–	> 100 µM	–	> 100 µM	–	> 100 µM	–	> 100 µM	–	> 100 µM	–	> 100 µM	–	> 100 µM	–	> 100 µM
O=C(Nc1ccc(Cl)cc1)N1CCN(c2ccc3nncn3n2)CC1	30.2 µM	> 100 µM	> 100 µM	> 100 µM	49.8 µM	> 100 µM	22 µM	> 100 µM	> 100 µM	> 100 µM	> 100 µM	> 100 µM	24.9 µM	> 100 µM	52.9 µM	> 100 µM	50.4 µM	> 100 µM	21.7 µM	> 100 µM
NS(=O)(=O)c1cc(C(=O)O)c(Cl)c([N+](=O)[O-])c1Cl	–	> 100 µM	–	> 100 µM	–	> 100 µM	–	> 100 µM	–	> 100 µM	–	> 100 µM	–	> 100 µM	–	> 100 µM	–	> 100 µM	–	> 100 µM
NCCCNc1nc2ccccc2c2c(=O)c3cc(F)cc(Cl)c3sc12	1.57 µM	3.01 µM	1.94 µM	3.49 µM	1.72 µM	3.17 µM	1.78 µM	4.1 µM	1.77 µM	3.9 µM	1.58 µM	3.12 µM	1.47 µM	2.84 µM	1.72 µM	3.17 µM	1.64 µM	3.11 µM	1.82 µM	3.52 µM
O=c1[nH]c2ccccc2n1C1CCN(CCOc2ccccc2)CC1	20.6 µM	> 100 µM	47.9 µM	> 100 µM	15.8 µM	> 100 µM	6.85 µM	> 100 µM	50.3 µM	> 100 µM	91.7 µM	> 100 µM	34.1 µM	> 100 µM	40.4 µM	> 100 µM	18.7 µM	> 100 µM	50.5 µM	> 100 µM
CCS(=O)(=O)N1CCN(c2ccc(Nc3ncc(C(N)=O)c(NC4CC4)n3)cc2)CC1	2.64 µM	27.1 µM	13.6 µM	35.6 µM	8.63 µM	> 100 µM	4.94 µM	> 100 µM	3.51 µM	29.7 µM	5.29 µM	> 100 µM	1.1 µM	18.4 µM	0.812 µM	18.5 µM	15.3 µM	59.9 µM	15.7 µM	44 µM
COC(=O)[C@H](CCCCNC(=O)OCc1ccccc1)NC(=O)[C@@H](NC(=O)Nc1cc(C(F)(F)F)cc(C(F)(F)F)c1)C(C)C	> 10 µM	> 10 µM	> 10 µM	> 10 µM	> 10 µM	> 10 µM	> 10 µM	> 10 µM	> 10 µM	> 10 µM	> 10 µM	> 10 µM	> 10 µM	> 10 µM	> 10 µM	> 10 µM	> 10 µM	> 10 µM	> 10 µM	> 10 µM
Nc1no[n+]([O-])c1-c1nnc2c(n1)-c1ccccc1C2=O	1.83 µM	3.91 µM	3.91 µM	13.4 µM	1.74 µM	3.45 µM	1.26 µM	4.54 µM	2.74 µM	10 µM	3.02 µM	11.7 µM	2.25 µM	6.75 µM	3.53 µM	15.3 µM	3.38 µM	11.4 µM	4.47 µM	15.7 µM
C1=C\CCCCN2CC[C@H]3[C@H](CCCC/C=C\CCCN4C[C@@H](CCCCC/1)C[C@@H]3C4)C2	2.22 µM	7.77 µM	1.82 µM	3.35 µM	11.7 µM	23.9 µM	2.37 µM	–	15.7 µM	29.8 µM	9.27 µM	23.1 µM	4.35 µM	10.5 µM	9.05 µM	21.5 µM	5.58 µM	18.1 µM	13.2 µM	25.9 µM
Cc1nn(-c2ccccc2)c2nc(C)n(-c3ccc(Br)cc3)c(=O)c12	0.416 µM	> 100 µM	3.46 µM	> 100 µM	1.44 µM	> 100 µM	0.302 µM	> 100 µM	0.678 µM	> 100 µM	0.584 µM	> 100 µM	0.631 µM	36.7 µM	0.521 µM	> 100 µM	0.451 µM	> 39.1 µM	0.428 µM	> 100 µM
C=C1C(=O)O[C@H]2[C@H]1CC/C(COC(=O)N[C@H](Cc1c[nH]c3ccccc13)C(=O)OC)=C\CC[C@@]1(C)O[C@@H]21	1.53 µM	3.43 µM	1.96 µM	4.48 µM	1.61 µM	4.37 µM	1.72 µM	8.29 µM	12.5 µM	28.5 µM	1.85 µM	5.35 µM	1.49 µM	2.84 µM	11.8 µM	28.6 µM	5.79 µM	21.2 µM	1.88 µM	4.4 µM
COc1cccc(-c2nn(-c3ccccc3)cc2-c2ccnc(NCCCNS(=O)(=O)c3ccc(C(F)(F)F)cc3)c2)c1	4.08 µM	> 100 µM	9.1 µM	> 100 µM	22.7 µM	> 100 µM	3.06 µM	> 100 µM	13.8 µM	> 100 µM	10.7 µM	> 100 µM	2.9 µM	> 100 µM	4.02 µM	> 100 µM	6 µM	> 100 µM	7.08 µM	> 100 µM
Cc1cc(OCc2nn(CN3CCN(C)CC3)c(=S)n2/N=C/c2ccc(F)cc2)ccc1Cl	15.2 µM	29.3 µM	15.2 µM	31.5 µM	20.7 µM	40.7 µM	19.2 µM	41.7 µM	18.7 µM	34.4 µM	16.2 µM	30.5 µM	17.6 µM	32.9 µM	17.9 µM	37.5 µM	17 µM	31.8 µM	17.4 µM	31.6 µM
COc1ccc(NC(=O)c2cccc(C3CCc4c(cc(OC)c(OC)c4OC)O3)c2)cc1 (configuration not stated)	1.96 µM	> 100 µM	4.12 µM	> 100 µM	2.93 µM	> 100 µM	0.654 µM	> 100 µM	2.86 µM	> 100 µM	4.96 µM	> 100 µM	2.36 µM	> 100 µM	3.49 µM	> 100 µM	3.33 µM	> 100 µM	2.05 µM	> 100 µM
NC(=O)c1ncn2c(=O)n(CCCl)nnc12	–	521 µM	–	562 µM	–	520 µM	–	642 µM	53.4 µM	139 µM	–	482 µM	–	521 µM	> 92.4 µM	408 µM	–	221 µM	44.9 µM	137 µM
Cn1cc(-c2nc(-c3cn(C)c4ncccc34)cs2)c2ccccc21	1.49 µM	> 100 µM	2.09 µM	> 100 µM	2.25 µM	10.7 µM	0.412 µM	> 100 µM	2.01 µM	11.5 µM	1.39 µM	38.7 µM	4.93 µM	> 100 µM	0.61 µM	> 100 µM	0.858 µM	15.9 µM	1.35 µM	> 100 µM
